Here are results for 64 compounds from patent US20130303535A1, “NOVEL BICYCLIC HETEROCYCLIC COMPOUND” (priority 2008, published 2013).

The experiment deals with TTX resistant Na channel of human SNS-expressing cell (SNS) (Homo sapiens, UniProt Q9Y5Y9). Briefly: cell-based. To be noted: CHO-K1, compound concentration 12.5 μM; read-out: SNS inhibitory rate (%).
Chain of TTX resistant Na channel of human SNS-expressing cell (SNS) (Q9Y5Y9 whole entry, looked up): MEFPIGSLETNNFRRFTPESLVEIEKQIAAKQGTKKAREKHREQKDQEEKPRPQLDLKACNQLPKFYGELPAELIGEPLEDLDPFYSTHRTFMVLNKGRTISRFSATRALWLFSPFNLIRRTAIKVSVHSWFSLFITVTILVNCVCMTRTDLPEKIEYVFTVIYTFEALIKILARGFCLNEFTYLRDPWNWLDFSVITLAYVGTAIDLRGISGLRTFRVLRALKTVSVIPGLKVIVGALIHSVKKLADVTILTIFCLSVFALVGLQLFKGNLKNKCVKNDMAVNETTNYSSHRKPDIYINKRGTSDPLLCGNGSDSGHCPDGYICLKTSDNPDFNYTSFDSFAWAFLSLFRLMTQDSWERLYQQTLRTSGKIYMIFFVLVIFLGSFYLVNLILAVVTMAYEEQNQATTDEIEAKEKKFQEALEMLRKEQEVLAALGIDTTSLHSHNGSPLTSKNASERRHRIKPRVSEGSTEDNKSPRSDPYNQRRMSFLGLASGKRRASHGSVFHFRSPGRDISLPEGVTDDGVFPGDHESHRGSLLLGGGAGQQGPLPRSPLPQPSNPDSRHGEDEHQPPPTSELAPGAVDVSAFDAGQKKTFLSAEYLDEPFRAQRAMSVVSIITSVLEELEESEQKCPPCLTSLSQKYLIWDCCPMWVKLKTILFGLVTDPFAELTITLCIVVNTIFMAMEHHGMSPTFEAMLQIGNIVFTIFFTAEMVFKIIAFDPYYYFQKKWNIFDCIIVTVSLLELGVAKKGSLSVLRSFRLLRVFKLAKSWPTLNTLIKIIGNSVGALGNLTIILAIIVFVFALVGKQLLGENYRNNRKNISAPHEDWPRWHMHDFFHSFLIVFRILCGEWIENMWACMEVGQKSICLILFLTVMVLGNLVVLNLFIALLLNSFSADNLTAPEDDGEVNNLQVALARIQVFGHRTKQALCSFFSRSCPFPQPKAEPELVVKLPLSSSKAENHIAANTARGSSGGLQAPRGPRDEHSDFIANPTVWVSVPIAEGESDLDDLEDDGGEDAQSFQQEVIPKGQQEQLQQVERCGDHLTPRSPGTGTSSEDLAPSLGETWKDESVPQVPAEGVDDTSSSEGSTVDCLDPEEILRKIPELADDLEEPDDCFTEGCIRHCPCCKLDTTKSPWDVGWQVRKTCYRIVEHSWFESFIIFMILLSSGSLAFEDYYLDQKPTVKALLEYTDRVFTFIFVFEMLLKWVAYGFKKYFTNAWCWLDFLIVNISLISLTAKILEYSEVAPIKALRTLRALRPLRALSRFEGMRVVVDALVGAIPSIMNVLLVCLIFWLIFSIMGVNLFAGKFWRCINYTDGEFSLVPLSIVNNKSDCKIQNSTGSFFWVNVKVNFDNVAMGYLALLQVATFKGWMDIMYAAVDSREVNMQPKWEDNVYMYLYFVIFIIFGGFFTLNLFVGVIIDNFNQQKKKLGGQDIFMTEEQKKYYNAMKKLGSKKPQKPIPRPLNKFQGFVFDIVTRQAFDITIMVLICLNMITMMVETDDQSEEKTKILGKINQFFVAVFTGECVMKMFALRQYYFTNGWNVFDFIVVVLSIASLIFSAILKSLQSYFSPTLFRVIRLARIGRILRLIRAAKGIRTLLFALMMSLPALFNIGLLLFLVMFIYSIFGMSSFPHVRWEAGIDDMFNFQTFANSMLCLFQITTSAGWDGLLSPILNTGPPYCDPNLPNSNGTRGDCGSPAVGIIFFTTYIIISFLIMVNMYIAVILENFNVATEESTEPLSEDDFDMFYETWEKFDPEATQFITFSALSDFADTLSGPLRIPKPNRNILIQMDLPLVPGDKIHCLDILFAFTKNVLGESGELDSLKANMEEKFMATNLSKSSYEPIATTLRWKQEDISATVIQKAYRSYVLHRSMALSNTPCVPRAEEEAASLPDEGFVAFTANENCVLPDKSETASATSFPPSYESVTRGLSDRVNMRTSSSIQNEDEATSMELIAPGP
For the compound `C[C@H](NCc1nc2ccc(Oc3ccccc3)cc2n1CC1CCOCC1)C(N)=O` [Example 13], the inhibition at 12.5 µM is 29.8%. In the case of `CCOCCn1c(CNC(C)(C)C(N)=O)nc2ccc(-c3ccc(F)c(C)c3)cc21` [Example 168] it was 20.2%; in that of `CCn1c(CNC(C)(C)C(N)=O)nc2ccc(Oc3ccc(C)cc3)cc21` [Example 135], 57.8%; in that of `CCn1c(CNC(C)(C)C(N)=O)nc2ccc(-c3ccc(F)cc3)cc21` [Example 154], 11.2%. In the case of `CC(C)n1c(CN[C@@H](C)C(N)=O)nc2ccc(Oc3ccccc3)cc21` [Example 9] it was 28.9%. With `CCOCCn1c(CN[C@@H](C)C(N)=O)nc2ccc(-c3ccc(Cl)cc3)cc21` [Example 73] the figure was 8%. Consider `CCOCCn1c(CN[C@@H](C)C(N)=O)nc2ccc(Oc3cccc(Cl)c3)cc21` [Example 29], for which the inhibition at 12.5 µM worked out at 27%. For the compound `C[C@H](NCc1nc2ccc(Oc3ccc(OC(F)(F)F)cc3)cc2n1CCCO)C(N)=O` [Example 133], the inhibition at 12.5 µM worked out at 91.7%. With `Cc1ccc(Oc2ccc3nc(CN[C@@H](C)C(N)=O)n(CC(C)(C)O)c3c2)cc1` [Example 101] the figure was 85.2%; with `CCOCCn1c(CN[C@@H](C)C(N)=O)nc2ccc(-c3ccc(C)cc3C)cc21` [Example 159], 96.1%; with `CCOCCn1c(CN[C@@H](C)C(=O)NCCOC)nc2ccc(Oc3ccc(F)cc3)cc21` [Example 88], 83.5%. With `CCOCCn1c(CN[C@@H](C)C(N)=O)nc2ccc(-c3ccc(F)c(F)c3)cc21` [Example 148] the figure was 17%. As for `CCOCCn1c(CN[C@@H](C)C(N)=O)nc2ccc(-c3ccc(F)cc3Cl)cc21` [Example 155], the inhibition at 12.5 µM amounted to 86.1%. With `CCn1c(CNC(C)(C)C(N)=O)nc2ccc(Oc3ccc(F)cc3)cc21` [Example 138], the inhibition at 12.5 µM is 93.1%. With `COCCCn1c(CN[C@@H](C)C(N)=O)nc2ccc(Oc3ccc(F)cc3F)cc21` [Example 123] the figure was 96.8%. In the case of `CC(C)(NCc1nc2ccc(Oc3ccc(F)cc3)cc2n1C1CC1)C(N)=O` [Example 136] it was 28.7%. With `Cc1ccc(Oc2ccc3nc(CN[C@@H](C)C(N)=O)n(C[C@@H]4CCCO4)c3c2)cc1` [Example 119] the figure was 87.2%; with `C[C@H](NCc1nc2ccc(Oc3ccccc3)cc2n1C[C@H]1CCCO1)C(N)=O` [Example 20], 7.2%; with `CC(C)(NCc1nc2ccc(Oc3ccc(F)cc3F)cc2n1C[C@@H]1CCCO1)C(N)=O` [Example 137], 90.7%.

In the case of `C[C@H](NCc1nc2ccc(Oc3ccc(F)c(F)c3)cc2n1C[C@H]1CCCO1)C(N)=O` [Example 124], the inhibition at 12.5 µM came to 87.8%.

As for `CCOCCn1c(CN[C@@H](C)C(N)=O)nc2ccc(-c3ccc(F)c(C)c3)cc21` [Example 167], the inhibition at 12.5 µM is 82.8%. With `CCOCCn1c(CN[C@@H](C)C(N)=O)nc2ccc(Oc3cc(F)c(F)cc3F)cc21` [Example 55] the figure was 89.4%. As for `NC(=O)CNCc1nc2ccc(Oc3ccc(F)cc3)cc2n1C1CCOCC1` [Example 65], the inhibition at 12.5 µM amounted to 47.8%. As to `CCOCCn1c(CN[C@@H](C)C(N)=O)nc2ccc(-c3ccc(C)cc3F)cc21` [Example 165], the inhibition at 12.5 µM is 100%. With `CCOCCn1c(CN[C@@H](C)C(N)=O)nc2ccc(Oc3ccc(Cl)cc3)cc21` [Example 27] the figure was 78.2%; with `CCOCCn1c(CN[C@@H](C)C(N)=O)nc2cc(F)c(-c3ccc(F)cc3)cc21` [Example 109, N^2-{[1-(2-ethoxyethyl)-5-fluoro-6-(4-fluorophenyl)-1H-benzimidazol-2-yl]methyl}-L-alaninamide], 89.3%. With `CCOCCn1c(CN[C@@H](C)C(N)=O)nc2ccc(Oc3cc(F)cc(F)c3F)cc21` [Example 57] the figure was 87.6%. In the case of `NC(=O)CNCc1nc2ccc(Oc3ccccc3)cc2n1C1CCC1` [Example 12] it was 17%; in that of `C[C@H](NCc1nc2ccc(Oc3ccc(F)cc3F)cc2n1C[C@@H]1CCCO1)C(N)=O` [Example 121], 94.3%. On to `CCOCCn1c(CN[C@H](C(N)=O)C(C)C)nc2ccc(-c3ccc(F)cc3)cc21` [Example 151], for which the inhibition at 12.5 µM turned out to be 26.6%. For the compound `C[C@H](NCc1nc2ccc(Oc3ccc(F)cc3F)cc2n1C1CC1)C(N)=O` [Example 99], the inhibition at 12.5 µM was 65.4%. With `CCOCCn1c(CN[C@@H](CC)C(N)=O)nc2ccc(Oc3ccc(F)cc3)cc21` [Example 41] the figure was 99.7%; with `CCn1c(CN[C@@H](C)C(N)=O)nc2ccc(Oc3ccc(F)cc3)cc21` [Example 139], 96%; with `C[C@H](NCc1nc2ccc(Oc3ccc(F)cc3F)cc2n1CC(C)(C)O)C(N)=O` [Example 105], 75.1%. Consider `CCOCCn1c(CNC(C)(C)C(N)=O)nc2ccc(-c3ccc(C)c(F)c3)cc21` [Example 170], for which the inhibition at 12.5 µM turned out to be 14.2%. With `CCOCCn1c(CN[C@@H](C)C(N)=O)nc2ccc(-c3ccc(F)cc3F)cc21` [Example 147] the figure was 23.5%; with `CCOCCn1c(CN[C@@H](C)C(N)=O)nc2ccc(-c3ccccc3Cl)cc21` [Example 71], 73.7%; with `CCOCCn1c(CN(C)CC(N)=O)nc2ccc(Oc3ccccc3)cc21` [Example 40], 95.8%.

On to `CCOCCn1c(CN[C@@H](C)C(N)=O)nc2ccc(-c3ccc(F)c(OC)c3)cc21` [Example 173], for which the inhibition at 12.5 µM is 27.1%. With `CCOCCn1c(CN[C@@H](C)C(N)=O)nc2ccc(-c3cccc(F)c3F)cc21` [Example 171] the figure was 38.3%.

Consider `CCOCCn1c(CNCC(N)=O)nc2ccc(-c3ccccc3Cl)cc21` [Example 70], for which the inhibition at 12.5 µM was determined as 11.2%. With `CCOCCn1c(CN[C@@H](C)C(N)=O)nc2cc(F)c(-c3ccc(F)c(C)c3)cc21` [Example 188] the figure was 87%; with `CCn1c(CN[C@@H](C)C(N)=O)nc2ccc(Oc3ccc(F)cc3F)cc21` [Example 98], 69.8%; with `CCOCCn1c(CN[C@@H](C)C(N)=O)nc2ccc(Oc3ccc(C(C)C)cc3)cc21` [Example 94], 63.9%. With `CCOCCn1c(CN[C@@H](C)C(N)=O)nc2ccc(Oc3ccc(F)cc3)cc21` [Example 59, N^2-{[1-(2-ethoxyethyl)-6-(4-fluorophenoxy)-1H-benzimidazol-2-yl]methyl}-L-alaninamide] the figure was 54.8%; with `CCn1c(CNC(C)(C)C(N)=O)nc2cc(F)c(-c3ccc(F)cc3)cc21` [Example 187], 53.3%. In the case of `CC(C)n1c(CNCC(N)=O)nc2ccc(Oc3ccccc3)cc21` [Example 10] it was 16.3%. On to `C[C@H](NCc1nc2ccc(Oc3ccccc3)cc2n1C1CCC1)C(N)=O` [Example 11], for which the inhibition at 12.5 µM turned out to be 63%.

`CCOCCn1c(CN[C@@H](C)C(N)=O)nc2cc(Cl)c(-c3ccc(OC(F)(F)F)cc3)cc21` [Example 181]: the inhibition at 12.5 µM turned out to be 0%. In the case of `CCOCCn1c(CN[C@@H](C)C(N)=O)nc2ccc(-c3ccc(F)cc3)cc21` [Example 68] it was 16%; in that of `CC(C)(NCc1nc2ccc(Oc3ccccc3)cc2n1C1CCC1)C(N)=O` [Example 33], 32.9%. With `CC(C)OCCn1c(CNCC(N)=O)nc2ccc(Oc3ccc(F)cc3)cc21` [Example 61] the figure was 26.1%; with `CCOCCn1c(CNCC(N)=O)nc2ccc(Oc3ccccc3)nc21` [Example 80, N^2-{[3-(2-ethoxyethyl)-5-phenoxy-3H-imidazo[4,5-b]pyridin-2-yl]methyl}glycinamide], 2.5%; with `CCOCCn1c(CN[C@@H](C)C(N)=O)nc2ccc(Oc3ccc(C(C)(C)C)cc3)cc21` [Example 74, N^2-{[6-(4-tert-butylphenoxy)-1-(2-ethoxyethyl)-1H-benzimidazol-2-yl]methyl}-L-alaninamide], 58.2%. In the case of `CCOCCn1c(CN[C@@H](C)C(N)=O)nc2cc(Cl)c(-c3ccc(C)cc3)cc21` [Example 178] it was 16%; in that of `C[C@H](NCc1nc2ccc(Oc3ccc(F)cc3)cc2n1C1CCN(C(=O)OC(C)(C)C)CC1)C(N)=O` [Example 82, tert-butyl 4-[2-({[(2S)-1-amino-1-oxopropan-2-yl]amino}methyl)-6-(4-fluorophenoxy)-1H-benzimidazol-1-yl]piperidine-1-carboxylate], 30.7%; in that of `CCOCCn1c(CNC(C)(C)C(N)=O)nc2ccc(OCc3ccccc3)cc21` [Example 77, N^2-{[6-(benzyloxy)-1-(2-ethoxyethyl)-1H-benzimidazol-2-yl]methyl}-2-methylalaninamide], 16%. With `COCCCn1c(CN[C@@H](C)C(N)=O)nc2ccc(Oc3ccc(F)c(F)c3)cc21` [Example 122], the inhibition at 12.5 µM was 100%. Consider `CCn1c(CN[C@@H](C)C(N)=O)nc2ccc(Oc3ccc(OC(F)(F)F)cc3)cc21` [Example 104], for which the inhibition at 12.5 µM was determined as 83.6%. In the case of `CCOCCn1c(CNC(C)(C)C(N)=O)nc2ccc(Oc3ccccc3)cc21` [Example 39] it was 48.8%; in that of `CCOCCn1c(CN[C@@H](C)C(N)=O)nc2cc(Cl)c(-c3ccc(F)cc3)cc21` [Example 92, N^2-{[5-chloro-1-(2-ethoxyethyl)-6-(4-fluorophenyl)-1H-benzimidazol-2-yl]methyl}-L-alaninamide], 66.7%; in that of `COCCn1c(CN[C@@H](C)C(N)=O)nc2ccc(Oc3ccc(F)cc3)cc21` [Example 60], 75.7%. With `COCCCn1c(CN[C@@H](C)C(N)=O)nc2ccc(Oc3ccccc3)cc21` [Example 24] the figure was 5.8%; with `NC(=O)CNCc1nc2ccc(Oc3ccccc3)cc2n1CC1CCOCC1` [Example 14], 16.4%.
